In article PMC7479175, “Selection of Potent Inhibitors of Soluble Epoxide Hydrolase for Usage in Veterinary Medicine” (Frontiers in Veterinary Science, 2020):
Read-outs that look alike come from different tables or passages of the source.

How the values were obtained:
[1] = molecular target: T1, sEH activity from liver cytosol of Rat (Rattus norvegicus, UniProt P80299); assay: sEH inhibition potency (IC50), radioactive assay with [3H]t-DPPO, liver cytosol; type: biochemical
T1 construct: The radioactive fluorescent assay was used with the liver crude extracts; from tissue; host or cells: rat liver cytosol (100,000 g supernatant)
T1 sequence (P80299 1-554): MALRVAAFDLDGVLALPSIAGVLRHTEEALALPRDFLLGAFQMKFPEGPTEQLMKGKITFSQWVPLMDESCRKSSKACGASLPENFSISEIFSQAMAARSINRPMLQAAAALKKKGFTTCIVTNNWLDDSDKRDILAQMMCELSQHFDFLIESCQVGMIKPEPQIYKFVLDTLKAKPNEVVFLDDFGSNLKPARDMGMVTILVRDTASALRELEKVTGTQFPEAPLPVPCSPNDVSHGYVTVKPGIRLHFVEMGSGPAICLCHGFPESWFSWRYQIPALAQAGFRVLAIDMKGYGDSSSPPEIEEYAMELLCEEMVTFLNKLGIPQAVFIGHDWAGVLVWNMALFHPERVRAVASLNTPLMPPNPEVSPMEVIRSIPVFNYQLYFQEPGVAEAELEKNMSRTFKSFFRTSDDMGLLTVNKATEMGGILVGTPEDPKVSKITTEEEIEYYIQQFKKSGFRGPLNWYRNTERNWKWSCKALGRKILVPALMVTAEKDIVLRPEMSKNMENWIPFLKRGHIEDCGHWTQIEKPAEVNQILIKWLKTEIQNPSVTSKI
Description: (§1) Fresh liver tissues samples (5–30 g) were collected promptly after death from healthy adult cat, dog and horse euthanized for reasons unrelated to this study, and whose bodies were given to science by the owners in line with federal regulations and protocol approved by the Institutional Animal Care and Use Committee at University of California Davis. Similarly, tissues from the other animals tested herein were collected from healthy animals immediately after being slaughter at the university abattoir. Because no animals were directly used or killed for this study, sample collections were exempted from approval by the Institutional Animal Care and Use Committee of the University of California Davis and Michigan State University. […] The tissues were flash-frozen in liquid nitrogen following removal, and then kept at −80°C until used. After thawing on ice, the samples were homogenized in chilled sodium phosphate buffer (20 mM pH 7.4) containing 5 mM EDTA, 1 mM DTT and 1 mM PMSF (tissue weight:buffer volume ratio 1:4). These homogenates were centrifuged at 100,000 g for 60 min at 4°C. The supernatant (the cytosolic fraction) was separated from the pellet, aliquoted and flash frozen in liquid nitrogen, then kept frozen at −80°C until usage.
(§2) The IC50 values reported herein were determined using either a fluorescent based assay (CMNPC as substrate) for purified enzyme preparations or a radioactive based assay ([^3H]t-DPPO as substrate) for crude enzyme preparations ([20]). The fluorescent assay was used with the purified proteins. […] The substrate (CMNPC) was then added ([S]final = 5 μM). […] The radioactive […] assay was used with the liver crude extracts. Extracts were incubated with inhibitors ([I]final = 1–1,000 nM) at 30° C for 5 min in sodium phosphate buffer (pH 7.4) containing 0.1 mg/mL of BSA and 1% of DMSO, prior to substrate introduction ([^3H]t-DPPO [S]final: 50 μM; ~12,000 dpm/assay). The enzymes were incubated at 30°C for 10 min, and the reaction was quenched by the addition of 60 μL methanol and 200 μL isooctane, which extracts the remaining epoxide from the aqueous phase. […] Assays were performed in triplicate.

[2] = molecular target: T2, sEH activity from liver cytosol of Hamster (Mesocricetus auratus, UniProt A0A1U7QV09); assay: as above; type: biochemical; conditions: [3H]t-DPPO ([S]final = 5 μM) as substrate
T2 sequence (A0A1U7QV09 1-554): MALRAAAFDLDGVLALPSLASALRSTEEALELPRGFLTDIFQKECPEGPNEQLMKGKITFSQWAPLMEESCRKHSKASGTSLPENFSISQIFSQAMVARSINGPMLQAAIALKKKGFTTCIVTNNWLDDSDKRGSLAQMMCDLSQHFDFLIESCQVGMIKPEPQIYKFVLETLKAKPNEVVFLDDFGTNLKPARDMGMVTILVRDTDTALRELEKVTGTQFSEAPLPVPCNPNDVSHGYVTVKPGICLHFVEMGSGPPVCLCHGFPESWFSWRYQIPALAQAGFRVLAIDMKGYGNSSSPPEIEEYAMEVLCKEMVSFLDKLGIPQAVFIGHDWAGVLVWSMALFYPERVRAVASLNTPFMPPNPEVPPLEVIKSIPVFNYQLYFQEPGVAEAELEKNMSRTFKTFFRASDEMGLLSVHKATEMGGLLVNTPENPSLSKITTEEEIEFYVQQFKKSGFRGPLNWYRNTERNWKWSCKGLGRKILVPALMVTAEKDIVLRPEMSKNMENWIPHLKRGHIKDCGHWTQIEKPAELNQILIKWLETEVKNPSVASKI
Description: as §1, §2

[3] = Microsomal stability; type: in vitro ADME, horse; conditions: for Stability (% without microsomes) Horse liver microsomes NADPH + / Stability (% without microsomes) Horse liver microsomes NADPH –: 1 μM inhibitor, microsomes 1 mg/mL, 37°C, 30 min, compound remaining, average ± SD (n = 3); for Stability (% without microsomes) Horse liver microsomes NADPH +: with NADPH; for metabolism in horse liver microsomes (in words): in the presence of NADPH
Protocol: (§3) The stability of the sEH inhibitors was determined using liver microsomes as described ([24]). […] After 30 min at 37°C, the reaction was stopped by the addition of one volume of methanol containing CUDA (200 nM) as surrogate. The amount of remaining inhibitor was determined by LC/MS/MS. The stability is reported as a percentage of compound remaining after 30 min in these conditions.
(§4) Mass spectrometry analyses were performed using a Waters Quattro Premier triple quadrupole tandem mass spectrometer (Micromass, Manchester, UK) interfaced to an electrospray ionization (ESI) source. The MS was coupled with a Waters Acquity UPLC (Waters, Milford, MA, USA). A Varian Pursuit5 C18 RP HPLC column (150 mm × 2.1 mm, particle size 5 μm) was used to separate the analytes. […] The source and the desolvation temperatures were set at 120 and 300°C, respectively. […] Dwell time was set to 0.1 s.

[4] = Microsomal stability; type: in vitro ADME, dog; conditions: for Stability (% without microsomes) Dog liver microsomes NADPH + / Stability (% without microsomes) Dog liver microsomes NADPH –: 1 μM inhibitor, microsomes 1 mg/mL, 37°C, 30 min, compound remaining, average ± SD (n = 3); for Stability (% without microsomes) Dog liver microsomes NADPH +: with NADPH; for metabolism in dog liver microsomes (in words): in the presence of NADPH
Protocol: as §3, §4

[5] = Microsomal stability; type: in vitro ADME, cat; conditions: for Stability (% without microsomes) Cat liver microsomes NADPH + / Stability (% without microsomes) Cat liver microsomes NADPH –: 1 μM inhibitor, microsomes 1 mg/mL, 37°C, 30 min, compound remaining, average ± SD (n = 3); for Stability (% without microsomes) Cat liver microsomes NADPH +: with NADPH; for metabolism in cat liver microsomes (in words): in the presence of NADPH
Protocol: as §3, §4

[6] = liver cytosol, [3H]t-DPPO ([S]final = 5 μM) as substrate, read-out: IC50 (nM) Rat

| Compound | IC50 [1, 6] [nM] | IC50 [2] [nM] | Stability (% without microsomes) Horse liver microsomes NADPH + [3] [%] | metabolism in horse liver microsomes (in words) [3] | Stability (% without microsomes) Dog liver microsomes NADPH + [4] [%] | Stability (% without microsomes) Dog liver microsomes NADPH – [4] [%] | metabolism in dog liver microsomes (in words) [4] | Stability (% without microsomes) Cat liver microsomes NADPH + [5] [%] | Stability (% without microsomes) Cat liver microsomes NADPH – [5] [%] | metabolism in cat liver microsomes (in words) [5] | IC50 [1] [nM] | Stability (% without microsomes) Horse liver microsomes NADPH – [3] [%] | stability in horse liver microsomes (in words) ([3]; in the absence of NADPH) | stability in dog liver microsomes (in words) ([4]; in the absence of NADPH) | stability in cat liver microsomes (in words) ([5]; in the absence of NADPH) |
| --- | --- | --- | --- | --- | --- | --- | --- | --- | --- | --- | --- | --- | --- | --- | --- |
| O=C(NCCCCOc1ccc(F)cc1)NC12CC3CC(CC(C3)C1)C2 [1,707] | 7 | 2 | 1.6 ± 0.2 | metabolized rapidly | 8 ± 3 | 87 ± 17 | metabolized rapidly | 5 ± 1 | 101 ± 14 | metabolized rapidly | – | – | – | – | – |
| O=C(Nc1ccc(OC(F)(F)F)cc1)N[C@H]1CC[C@H](Oc2ccc(C(=O)O)cc2)CC1 [1,728, trans-4-{4-[3-(4-trifluoromethoxy-phenyl)-ureido]-cyclohexyloxy}-benzoic acid] | – | 5 | 89 ± 3 | most stable | 100 ± 3 | 104 ± 3 | most stable | 101 ± 3 | 103 ± 8 | most stable | 6 | 108 ± 10 | – | – | – |
| N#CNC(=O)CCCCCCCCCCCNC(=O)NC12CC3CC(CC(C3)C1)C2 [1,845] | 12 | 34 | 28 ± 9 | further metabolized | 34 ± 11 | 84 ± 3 | further metabolized | 9 ± 2 | 5 ± 1 | – | – | 67 ± 3 | not stable | not stable | not stable |
